Results as given in ChEMBL document CHEMBL1145498, “A systematic interaction map of validated kinase inhibitors with Ser/Thr kinases” (Proc Natl Acad Sci U S A, 2007).

Legend:
[1] = target: Serine/threonine-protein kinase PAK 6 (Homo sapiens) (UniProt Q9NQU5)
[2] = target: Calcium/calmodulin-dependent protein kinase type II subunit delta (Homo sapiens) (UniProt Q13557)
[3] = target: T1, Serine/threonine-protein kinase Nek2 (Homo sapiens) (UniProt P51955)
T1 sequence (whole entry): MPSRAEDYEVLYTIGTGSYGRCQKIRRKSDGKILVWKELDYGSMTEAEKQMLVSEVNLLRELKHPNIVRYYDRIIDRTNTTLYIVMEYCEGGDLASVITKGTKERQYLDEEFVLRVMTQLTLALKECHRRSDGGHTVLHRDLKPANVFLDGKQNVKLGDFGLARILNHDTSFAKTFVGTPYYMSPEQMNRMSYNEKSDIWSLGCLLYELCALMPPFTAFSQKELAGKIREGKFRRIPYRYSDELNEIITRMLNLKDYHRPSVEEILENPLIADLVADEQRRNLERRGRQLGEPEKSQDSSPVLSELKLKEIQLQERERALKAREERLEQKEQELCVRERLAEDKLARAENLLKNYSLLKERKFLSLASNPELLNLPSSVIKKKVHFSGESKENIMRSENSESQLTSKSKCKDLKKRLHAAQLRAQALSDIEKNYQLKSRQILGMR

[4] = target: Serine/threonine-protein kinase pim-1 (Homo sapiens) (UniProt P11309)
[5] = target: T2, Mitogen-activated protein kinase kinase kinase 5 (Homo sapiens) (UniProt Q99683)
T2 sequence (whole entry): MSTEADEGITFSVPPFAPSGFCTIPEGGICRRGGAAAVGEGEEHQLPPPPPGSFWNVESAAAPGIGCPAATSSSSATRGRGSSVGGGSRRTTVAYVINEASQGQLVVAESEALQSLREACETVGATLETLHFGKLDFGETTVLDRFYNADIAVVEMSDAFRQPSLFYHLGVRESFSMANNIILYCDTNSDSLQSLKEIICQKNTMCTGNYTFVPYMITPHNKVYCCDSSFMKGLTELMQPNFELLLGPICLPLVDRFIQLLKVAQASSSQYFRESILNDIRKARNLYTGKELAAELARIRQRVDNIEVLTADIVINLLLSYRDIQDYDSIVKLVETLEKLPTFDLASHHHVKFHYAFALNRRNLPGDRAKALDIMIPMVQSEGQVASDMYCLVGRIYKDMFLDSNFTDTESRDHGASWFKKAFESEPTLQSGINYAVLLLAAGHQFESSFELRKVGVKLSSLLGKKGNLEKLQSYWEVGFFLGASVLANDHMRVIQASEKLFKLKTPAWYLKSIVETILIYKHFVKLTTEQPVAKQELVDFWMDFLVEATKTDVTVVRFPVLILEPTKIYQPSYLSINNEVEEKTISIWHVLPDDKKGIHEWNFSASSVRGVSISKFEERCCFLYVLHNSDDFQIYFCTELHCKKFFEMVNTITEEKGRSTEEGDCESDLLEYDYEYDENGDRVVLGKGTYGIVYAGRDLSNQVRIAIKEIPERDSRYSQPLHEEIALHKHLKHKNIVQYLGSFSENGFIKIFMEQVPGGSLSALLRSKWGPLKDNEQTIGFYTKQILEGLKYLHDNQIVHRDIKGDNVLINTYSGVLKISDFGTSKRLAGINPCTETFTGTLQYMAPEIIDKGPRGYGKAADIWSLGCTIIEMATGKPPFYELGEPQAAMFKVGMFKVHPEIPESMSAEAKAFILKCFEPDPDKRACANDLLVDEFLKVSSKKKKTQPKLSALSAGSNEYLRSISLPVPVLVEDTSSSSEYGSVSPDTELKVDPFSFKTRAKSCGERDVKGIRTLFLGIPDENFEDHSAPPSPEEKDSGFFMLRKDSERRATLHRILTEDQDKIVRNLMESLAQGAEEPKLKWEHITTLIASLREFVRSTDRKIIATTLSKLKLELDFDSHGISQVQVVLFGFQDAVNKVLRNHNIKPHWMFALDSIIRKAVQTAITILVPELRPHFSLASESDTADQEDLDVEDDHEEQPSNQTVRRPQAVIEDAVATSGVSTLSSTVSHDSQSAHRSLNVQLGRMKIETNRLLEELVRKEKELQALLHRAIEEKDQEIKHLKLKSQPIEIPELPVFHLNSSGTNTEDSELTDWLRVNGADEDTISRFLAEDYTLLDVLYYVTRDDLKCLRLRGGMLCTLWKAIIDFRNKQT

[6] = target: Glycogen synthase kinase-3 beta (Homo sapiens, UniProt P49841)
[7] = target: Serine/threonine-protein kinase 10 (Homo sapiens) (UniProt O94804)
[8] = target: TRAF2 and NCK-interacting protein kinase (Homo sapiens) (UniProt Q9UKE5)
[9] = target: Serine/threonine-protein kinase 26 (Homo sapiens) (UniProt Q9P289)
[10] = target: Cyclin-dependent kinase 2 (Homo sapiens, UniProt P24941)
[11] = target: Serine/threonine-protein kinase PLK1 (Homo sapiens) (UniProt P53350)
[12] = target: Calcium/calmodulin-dependent protein kinase type II subunit alpha (Homo sapiens) (UniProt Q9UQM7)
[13] = target: Casein kinase I isoform gamma-2 (Homo sapiens) (UniProt P78368)
[14] = target: Cyclin-dependent kinase-like 1 (Homo sapiens) (UniProt Q00532)
[15] = target: Serine/threonine-protein kinase 26 (Homo sapiens) (UniProt Q9P289); remark: listed apart in the source
[16] = target: Dual specificity mitogen-activated protein kinase kinase 2 (Homo sapiens, UniProt P36507)
[17] = target: Calcium/calmodulin-dependent protein kinase type II subunit gamma (Homo sapiens) (UniProt Q13555)
[18] = target: Dual specificity protein kinase CLK1 (Homo sapiens) (UniProt P49759)

Sequence of Casein kinase I isoform gamma-2 (Homo sapiens) (P78368 whole entry, looked up, canonical isoform): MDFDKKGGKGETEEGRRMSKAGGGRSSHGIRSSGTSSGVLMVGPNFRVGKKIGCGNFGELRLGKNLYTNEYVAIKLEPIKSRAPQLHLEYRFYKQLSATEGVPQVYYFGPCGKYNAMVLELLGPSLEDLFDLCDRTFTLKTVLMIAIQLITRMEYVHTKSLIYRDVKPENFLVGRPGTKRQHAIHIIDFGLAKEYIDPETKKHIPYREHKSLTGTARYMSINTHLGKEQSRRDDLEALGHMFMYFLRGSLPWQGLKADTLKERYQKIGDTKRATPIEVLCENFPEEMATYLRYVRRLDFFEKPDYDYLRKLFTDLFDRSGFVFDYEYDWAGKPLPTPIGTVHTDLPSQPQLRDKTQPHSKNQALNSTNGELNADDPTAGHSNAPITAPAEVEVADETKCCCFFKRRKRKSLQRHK
Sequence of Serine/threonine-protein kinase PAK 6 (Homo sapiens) (Q9NQU5 whole entry, looked up): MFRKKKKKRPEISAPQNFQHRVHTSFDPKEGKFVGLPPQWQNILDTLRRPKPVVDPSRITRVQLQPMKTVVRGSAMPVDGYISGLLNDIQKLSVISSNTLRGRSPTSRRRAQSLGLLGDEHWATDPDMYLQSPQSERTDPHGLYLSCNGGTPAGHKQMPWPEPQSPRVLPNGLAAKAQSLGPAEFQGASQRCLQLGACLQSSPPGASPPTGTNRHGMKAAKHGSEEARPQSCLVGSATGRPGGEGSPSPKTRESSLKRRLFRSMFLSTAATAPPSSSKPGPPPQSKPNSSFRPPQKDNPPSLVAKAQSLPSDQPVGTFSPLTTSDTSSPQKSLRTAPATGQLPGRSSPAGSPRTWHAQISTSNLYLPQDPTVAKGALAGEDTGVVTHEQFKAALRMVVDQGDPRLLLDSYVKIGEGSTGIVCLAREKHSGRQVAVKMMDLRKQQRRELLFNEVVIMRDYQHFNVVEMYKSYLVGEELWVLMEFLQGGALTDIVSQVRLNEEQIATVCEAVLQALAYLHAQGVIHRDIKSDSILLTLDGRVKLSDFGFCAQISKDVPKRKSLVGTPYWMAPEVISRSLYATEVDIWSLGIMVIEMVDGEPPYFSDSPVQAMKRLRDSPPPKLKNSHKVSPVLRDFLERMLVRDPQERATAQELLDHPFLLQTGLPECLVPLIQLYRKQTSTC
Sequence of Glycogen synthase kinase-3 beta (P49841 whole entry, looked up): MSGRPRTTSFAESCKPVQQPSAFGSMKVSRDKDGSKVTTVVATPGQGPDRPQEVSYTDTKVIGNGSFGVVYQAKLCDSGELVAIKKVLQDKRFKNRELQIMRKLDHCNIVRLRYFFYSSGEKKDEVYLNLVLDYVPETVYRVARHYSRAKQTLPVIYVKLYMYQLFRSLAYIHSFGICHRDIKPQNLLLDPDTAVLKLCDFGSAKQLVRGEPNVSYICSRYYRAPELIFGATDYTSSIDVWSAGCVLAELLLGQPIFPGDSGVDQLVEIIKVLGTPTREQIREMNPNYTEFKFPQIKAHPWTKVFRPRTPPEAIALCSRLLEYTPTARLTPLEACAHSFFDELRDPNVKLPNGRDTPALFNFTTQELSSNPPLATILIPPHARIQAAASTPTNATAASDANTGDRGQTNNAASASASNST
Sequence of Cyclin-dependent kinase-like 1 (Homo sapiens) (Q00532 whole entry): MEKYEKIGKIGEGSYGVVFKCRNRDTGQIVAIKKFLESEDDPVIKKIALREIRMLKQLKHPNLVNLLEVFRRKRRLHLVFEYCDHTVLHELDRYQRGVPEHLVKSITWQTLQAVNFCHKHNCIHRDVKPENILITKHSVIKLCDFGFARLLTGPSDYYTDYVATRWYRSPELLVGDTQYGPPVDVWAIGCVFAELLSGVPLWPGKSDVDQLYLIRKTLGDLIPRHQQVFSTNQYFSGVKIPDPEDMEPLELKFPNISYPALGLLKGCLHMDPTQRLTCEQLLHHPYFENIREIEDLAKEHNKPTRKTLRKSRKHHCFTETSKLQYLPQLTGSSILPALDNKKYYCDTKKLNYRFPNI
Sequence of Dual specificity mitogen-activated protein kinase kinase 2 (P36507 whole entry): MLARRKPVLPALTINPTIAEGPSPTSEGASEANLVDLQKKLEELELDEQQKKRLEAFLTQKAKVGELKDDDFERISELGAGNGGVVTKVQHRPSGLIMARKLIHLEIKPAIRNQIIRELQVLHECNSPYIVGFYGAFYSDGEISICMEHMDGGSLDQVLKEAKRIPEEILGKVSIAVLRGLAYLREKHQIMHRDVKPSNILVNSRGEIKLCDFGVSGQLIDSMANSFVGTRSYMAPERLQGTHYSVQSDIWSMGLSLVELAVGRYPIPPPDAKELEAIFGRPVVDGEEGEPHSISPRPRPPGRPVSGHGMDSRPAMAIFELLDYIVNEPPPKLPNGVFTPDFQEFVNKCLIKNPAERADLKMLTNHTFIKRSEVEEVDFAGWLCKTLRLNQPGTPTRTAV
Sequence of Calcium/calmodulin-dependent protein kinase type II subunit gamma (Homo sapiens) (Q13555 whole entry): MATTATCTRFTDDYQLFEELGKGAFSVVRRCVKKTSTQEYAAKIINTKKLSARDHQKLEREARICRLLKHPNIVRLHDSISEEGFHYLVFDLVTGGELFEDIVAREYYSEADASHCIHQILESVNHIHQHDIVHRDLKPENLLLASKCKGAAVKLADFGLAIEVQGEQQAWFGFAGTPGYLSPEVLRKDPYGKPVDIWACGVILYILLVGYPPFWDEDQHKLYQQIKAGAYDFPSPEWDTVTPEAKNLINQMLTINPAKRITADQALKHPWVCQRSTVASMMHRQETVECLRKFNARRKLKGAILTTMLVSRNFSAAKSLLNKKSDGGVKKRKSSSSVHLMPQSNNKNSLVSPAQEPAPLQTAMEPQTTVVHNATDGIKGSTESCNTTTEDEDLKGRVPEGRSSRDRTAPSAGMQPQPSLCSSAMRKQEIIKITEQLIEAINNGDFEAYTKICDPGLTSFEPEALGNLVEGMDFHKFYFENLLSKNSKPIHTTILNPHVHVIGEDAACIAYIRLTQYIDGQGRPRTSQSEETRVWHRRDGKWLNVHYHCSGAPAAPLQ
Sequence of Serine/threonine-protein kinase PLK1 (Homo sapiens) (P53350 whole entry): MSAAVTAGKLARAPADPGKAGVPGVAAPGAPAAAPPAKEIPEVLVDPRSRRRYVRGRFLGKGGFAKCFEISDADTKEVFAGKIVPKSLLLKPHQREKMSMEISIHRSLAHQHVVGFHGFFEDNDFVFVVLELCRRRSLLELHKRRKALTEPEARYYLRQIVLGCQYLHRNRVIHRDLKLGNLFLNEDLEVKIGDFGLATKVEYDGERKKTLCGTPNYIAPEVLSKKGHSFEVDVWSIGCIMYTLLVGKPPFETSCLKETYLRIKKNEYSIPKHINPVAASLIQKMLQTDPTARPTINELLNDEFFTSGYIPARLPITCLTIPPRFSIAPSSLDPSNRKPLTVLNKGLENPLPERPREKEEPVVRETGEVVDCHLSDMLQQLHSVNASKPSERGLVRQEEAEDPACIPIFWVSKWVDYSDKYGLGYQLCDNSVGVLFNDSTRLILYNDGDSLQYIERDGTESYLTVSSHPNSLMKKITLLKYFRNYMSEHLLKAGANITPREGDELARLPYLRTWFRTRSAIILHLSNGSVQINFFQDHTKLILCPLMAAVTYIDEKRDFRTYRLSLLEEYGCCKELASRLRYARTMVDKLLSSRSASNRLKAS
Sequence of TRAF2 and NCK-interacting protein kinase (Homo sapiens) (Q9UKE5 whole entry, looked up): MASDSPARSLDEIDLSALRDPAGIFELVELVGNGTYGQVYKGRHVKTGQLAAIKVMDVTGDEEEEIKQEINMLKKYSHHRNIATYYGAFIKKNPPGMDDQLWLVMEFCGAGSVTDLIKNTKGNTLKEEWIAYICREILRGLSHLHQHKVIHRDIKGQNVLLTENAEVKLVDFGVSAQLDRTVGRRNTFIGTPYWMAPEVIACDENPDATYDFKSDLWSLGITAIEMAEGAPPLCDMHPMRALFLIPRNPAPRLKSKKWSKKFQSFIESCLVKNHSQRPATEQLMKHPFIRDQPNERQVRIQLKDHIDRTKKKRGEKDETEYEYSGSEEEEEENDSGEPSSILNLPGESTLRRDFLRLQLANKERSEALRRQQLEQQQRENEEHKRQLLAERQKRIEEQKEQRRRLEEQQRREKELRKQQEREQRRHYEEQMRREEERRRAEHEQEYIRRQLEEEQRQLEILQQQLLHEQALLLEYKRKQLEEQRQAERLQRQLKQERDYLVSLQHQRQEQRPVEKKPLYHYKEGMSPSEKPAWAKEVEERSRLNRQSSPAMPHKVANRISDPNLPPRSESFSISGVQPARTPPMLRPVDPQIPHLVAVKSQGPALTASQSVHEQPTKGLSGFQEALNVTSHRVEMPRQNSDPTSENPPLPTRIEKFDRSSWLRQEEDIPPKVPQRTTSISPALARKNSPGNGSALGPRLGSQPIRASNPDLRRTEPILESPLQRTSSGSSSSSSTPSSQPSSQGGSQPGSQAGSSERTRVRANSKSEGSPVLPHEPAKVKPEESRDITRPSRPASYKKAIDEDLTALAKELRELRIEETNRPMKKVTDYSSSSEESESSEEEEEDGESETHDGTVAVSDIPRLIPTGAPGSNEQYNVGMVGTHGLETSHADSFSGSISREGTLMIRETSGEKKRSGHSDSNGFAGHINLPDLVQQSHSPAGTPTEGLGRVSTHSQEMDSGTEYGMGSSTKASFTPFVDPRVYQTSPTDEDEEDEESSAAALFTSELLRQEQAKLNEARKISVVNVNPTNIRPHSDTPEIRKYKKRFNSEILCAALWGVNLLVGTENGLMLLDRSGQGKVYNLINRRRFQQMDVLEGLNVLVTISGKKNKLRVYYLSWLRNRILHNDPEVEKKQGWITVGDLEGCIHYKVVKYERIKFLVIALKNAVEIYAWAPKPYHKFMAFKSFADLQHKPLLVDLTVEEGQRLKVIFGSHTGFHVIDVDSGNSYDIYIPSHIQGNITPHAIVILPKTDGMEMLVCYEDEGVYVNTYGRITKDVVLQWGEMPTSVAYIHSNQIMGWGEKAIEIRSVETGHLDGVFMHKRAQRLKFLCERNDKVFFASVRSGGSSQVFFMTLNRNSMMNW

Row | SMILES | ΔTm [1] [°C] | ΔTm [2] [°C] | ΔTm [3] [°C] | ΔTm [4] [°C] | ΔTm [5] [°C] | ΔTm [6] [°C] | ΔTm [7] [°C] | ΔTm [8] [°C] | ΔTm [9] [°C] | ΔTm [10] [°C] | ΔTm [11] [°C] | ΔTm [12] [°C] | ΔTm [13] [°C] | ΔTm [14] [°C] | ΔTm [15] [°C] | ΔTm [16] [°C] | ΔTm [17] [°C] | ΔTm [18] [°C]
1 | CSc1nc(-c2ccc(F)cc2)c(-c2ccnc(NC(C)c3ccccc3)c2)[nH]1 (racemic) | -0.3 | 0.9 | 0.9 | -0.4 | 0.4 | 0 | 1.9 | -1.2 | -0.1 | -0.5 | 0.9 | 0.6 | 3.4 | 0.8 | 0.7 | 0.1 | -0.3 | 0
2 | COc1ccc(S(=O)(=O)N(CCO)c2ccccc2CN(C)C/C=C/c2ccc(Cl)cc2)cc1 | -0.8 | -1.2 | -0.1 | 1.3 | -0.1 | 0 | 0.2 | 1.3 | -0.1 | 0 | -0.2 | -0.7 | 0.3 | -1.2 | 0.1 | -0.2 | -0.6 | 0.1
3 | Oc1cc(O)cc(/C=C/c2ccc(O)c(O)c2)c1 [PICEATANNOL] | 0.5 | 0.1 | 1.1 | 3.2 | -0.6 | 0.8 | 0.6 | 0.4 | 1 | 1.2 | 2.3 | 0.8 | 0.2 | -0.2 | 0.9 | 0.2 | 0.2 | 0.9
4 | NS(=O)(=O)c1ccc(Nc2nc(OCC3CCCCC3)c3nc[nH]c3n2)cc1 | 1.7 | 0.2 | 4.9 | 0.4 | 2.4 | 4.3 | 4.1 | -0.3 | 5.7 |  | 5.1 | 0.6 | 2.5 | 0.6 | 2.9 | 0.8 | 0.3 | 3.9
5 | Cc1c2ccncc2c(C)c2c1[nH]c1ccccc12 [ELLIPTECINE] | -0.5 | -0.3 | 0.5 | 4.8 | 0.4 | 5.6 | 1.9 | -0.2 | 4.6 | 1.6 | 3.9 | 2.2 | 0.2 | 0.7 | 0.4 | 1 | 1.6 | 6.6
6 | COc1nccc(-c2c(-c3ccc(F)cc3)ncn2[C@H]2CC[C@H](O)CC2)n1 | -0.3 | 0.4 | 1 | -0.5 |  | 0.4 | 1.9 | -0.5 | 2.8 | -0.6 | -0.2 | 1.5 | 1 | -1 | -1.4 | 0.2 | 0.1 | 1.7
7 | CC(C)[C@H](CO)Nc1nc(Nc2cc(N)cc(Cl)c2)c2ncn(C(C)C)c2n1 [AMINOPURVALANOL] | 0.1 | 0.3 | 4.8 | 1.2 | 2.4 | 0.7 | 2.7 |  |  |  | 1 | 0.5 | 1.8 | 2.7 | 4.3 | 0.1 | 1.3 | 5.5
8 | COc1ccc(Cl)cc1NC(=O)Nc1cc(C)nc2ccccc12 | 1.9 | 0.9 | 0.3 | -1.1 | 2.2 | 0 | 0.6 |  |  | -0.6 | 0.9 | -0.5 | -0.1 | 1.6 | 1.1 | 0.2 | -0.5 | 0.5
9 | CCN1/C(=C/C(C)=O)Sc2ccc(OC)cc21 | -0.9 | -0.6 | 0.8 | 6.3 | 0.4 | 1.4 | 0.4 | 0.1 | 0.7 | 0.1 | 0.3 | -0.1 |  | 0.4 | -0.3 | 0.5 | 0.1 | 
10 | CN(C)C[C@@H]1CCn2cc(c3ccccc32)C2=C(C(=O)NC2=O)c2cn(c3ccccc23)CCO1 [RUBOXISTAURIN] | 0.8 |  | 1.5 |  | 0.1 | 5.9 | 7.2 | -0.3 | 4.1 | 0.9 | -0.9 | 3.1 | 0.9 | 0.3 | -2 | 0.1 | 1.6 | 5.4
11 | Cc1nc(N)sc1-c1ccnc(Nc2cccc([N+](=O)[O-])c2)n1 | -1.1 | -0.4 | 2.2 | 1.1 | 1.2 | 2.1 | 1.5 | 0.9 | 0.4 |  | 4.6 | 1.4 | 5.1 | 3.5 | 0.4 | 2.7 | 1 | 7
12 | CN1CCc2[nH]c(=S)c(C#N)c(-c3cccs3)c2C1 | 0 | -0.8 | 1 | 1.4 | 4.7 | 4 | 7.2 |  |  | 0 | 2.4 | 0.8 | 5.2 | 11.1 | 1 | -0.2 | 1 | 2.4
